The values that follow are results of earlier work, collected in patent publication US20160213705A1, “METHOD TO TREAT ONYCHOMYCOSIS BY HYDROXYPROPYL CHITOSAN” (POLICHEM S.A., priority 2013, published 2016).

Values joined by “and” are separate entries in the source; they are usually repeats but may differ in a detail not shown here. Equal values may be shown once.

The test system of data set [1] is onychomycosis. Particulars: topical; according to the different vehicles used.
Data set [2] deals with onychomycosis. To be noted: oral route.

In the case of `Cc1cc(C2CCCCC2)n(O)c(=O)c1` [ciclopirox], the cure rate in the data set with onychomycosis [1] was 12.7% and 5.8%.

For the molecule `CN(C/C=C/C#CC(C)(C)C)Cc1cccc2ccccc12` [terbinafine], in the data set on onychomycosis [2], the “complete cure, proportion of patients” value is 38%.
